According to ChEMBL document CHEMBL3727344, “2-fluoro-benzenesulfonamide compounds as RAF kinase modulators” (2014):

Legend:
[1] = target: Serine/threonine-protein kinase B-raf (Homo sapiens, UniProt P15056); assay: Inhibition of B-Raf (unknown origin)
[2] = target: RAF proto-oncogene serine/threonine-protein kinase (Homo sapiens, UniProt P04049); assay: Inhibition of c-Raf 1 (unknown origin)
[3] = target: Serine/threonine-protein kinase B-raf (Homo sapiens, UniProt P15056, V600E); assay: Inhibition of B-Raf V600E mutant (unknown origin)
[4] = target: T1, Serine/threonine-protein kinase A-Raf (Homo sapiens, UniProt P10398); assay: Inhibition of A-Raf (unknown origin)
T1 sequence (P10398 whole entry): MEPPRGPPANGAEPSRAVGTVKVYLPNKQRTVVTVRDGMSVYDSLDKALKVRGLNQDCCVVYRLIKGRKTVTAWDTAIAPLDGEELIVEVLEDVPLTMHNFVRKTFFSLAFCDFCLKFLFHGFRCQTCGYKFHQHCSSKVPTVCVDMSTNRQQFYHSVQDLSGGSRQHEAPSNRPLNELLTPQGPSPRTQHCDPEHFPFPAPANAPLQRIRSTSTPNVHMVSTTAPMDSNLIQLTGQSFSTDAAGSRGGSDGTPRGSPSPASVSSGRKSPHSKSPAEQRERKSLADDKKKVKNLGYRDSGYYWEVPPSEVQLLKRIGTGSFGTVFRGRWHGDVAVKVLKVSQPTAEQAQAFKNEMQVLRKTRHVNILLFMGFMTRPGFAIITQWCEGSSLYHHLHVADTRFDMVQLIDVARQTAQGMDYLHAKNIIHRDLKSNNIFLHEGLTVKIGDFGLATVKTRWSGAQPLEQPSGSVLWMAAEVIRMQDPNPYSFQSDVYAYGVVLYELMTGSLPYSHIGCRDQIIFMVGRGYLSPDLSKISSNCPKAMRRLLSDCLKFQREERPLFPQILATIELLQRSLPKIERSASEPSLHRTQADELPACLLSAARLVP

[5] = target: Macrophage colony-stimulating factor 1 receptor (Homo sapiens, UniProt P07333); assay: Inhibition of Fms (unknown origin)
[6] = target: Tyrosine-protein kinase BTK (Homo sapiens, UniProt Q06187); assay: Inhibition of Btk (unknown origin)
[7] = target: Proto-oncogene tyrosine-protein kinase Src (Homo sapiens, UniProt P12931); assay: Inhibition of Src (unknown origin)
[8] = target: Vascular endothelial growth factor receptor 2 (Homo sapiens, UniProt P35968); assay: Inhibition of Kdr (unknown origin)
[9] = target: Mast/stem cell growth factor receptor Kit (Homo sapiens, UniProt P10721); assay: Inhibition of Kit (unknown origin)
[10] = target: High affinity nerve growth factor receptor (Homo sapiens, UniProt P04629); assay: Inhibition of TrkA (unknown origin)
Focal adhesion kinase 1 = Focal adhesion kinase 1 (Homo sapiens, UniProt Q05397); assay: Inhibition of Fak (unknown origin)
[11] = target: Tyrosine-protein kinase Lck (Homo sapiens, UniProt P06239); assay: Inhibition of Lck (unknown origin)
[12] = target: Protein-tyrosine kinase 6 (Homo sapiens, UniProt Q13882); assay: Inhibition of Brk (unknown origin)
[13] = target: Tyrosine-protein kinase Lyn (Homo sapiens, UniProt P07948); assay: Inhibition of Lyn (unknown origin)
[14] = target: Tyrosine-protein kinase Yes (Homo sapiens, UniProt P07947); assay: Inhibition of Yes (unknown origin)
[15] = target: Tyrosine-protein kinase CSK (Homo sapiens, UniProt P41240); assay: Inhibition of Csk (unknown origin)

Chain of Serine/threonine-protein kinase B-raf (Homo sapiens, UniProt P15056) (P15056 whole entry): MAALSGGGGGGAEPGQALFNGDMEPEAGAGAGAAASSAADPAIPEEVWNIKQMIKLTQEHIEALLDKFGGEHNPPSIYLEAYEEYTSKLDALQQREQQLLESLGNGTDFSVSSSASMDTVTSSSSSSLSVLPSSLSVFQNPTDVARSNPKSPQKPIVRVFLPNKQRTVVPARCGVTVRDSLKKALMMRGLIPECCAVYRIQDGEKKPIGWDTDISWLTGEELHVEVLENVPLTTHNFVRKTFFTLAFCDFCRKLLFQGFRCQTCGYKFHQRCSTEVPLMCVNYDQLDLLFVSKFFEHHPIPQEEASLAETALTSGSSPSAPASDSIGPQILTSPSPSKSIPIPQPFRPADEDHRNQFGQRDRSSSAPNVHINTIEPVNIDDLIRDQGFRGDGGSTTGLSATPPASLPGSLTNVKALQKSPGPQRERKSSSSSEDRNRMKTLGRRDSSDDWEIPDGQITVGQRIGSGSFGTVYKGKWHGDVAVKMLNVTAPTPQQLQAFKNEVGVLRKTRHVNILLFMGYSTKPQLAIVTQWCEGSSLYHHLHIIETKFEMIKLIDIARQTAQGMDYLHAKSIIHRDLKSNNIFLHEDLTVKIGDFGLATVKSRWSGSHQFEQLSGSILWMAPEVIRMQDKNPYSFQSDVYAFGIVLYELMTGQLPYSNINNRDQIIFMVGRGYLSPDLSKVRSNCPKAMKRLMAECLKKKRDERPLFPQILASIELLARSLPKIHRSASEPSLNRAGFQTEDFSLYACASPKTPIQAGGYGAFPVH
Chain of Serine/threonine-protein kinase B-raf (Homo sapiens, UniProt P15056, V600E) (P15056 2-766 V600E limits assumed): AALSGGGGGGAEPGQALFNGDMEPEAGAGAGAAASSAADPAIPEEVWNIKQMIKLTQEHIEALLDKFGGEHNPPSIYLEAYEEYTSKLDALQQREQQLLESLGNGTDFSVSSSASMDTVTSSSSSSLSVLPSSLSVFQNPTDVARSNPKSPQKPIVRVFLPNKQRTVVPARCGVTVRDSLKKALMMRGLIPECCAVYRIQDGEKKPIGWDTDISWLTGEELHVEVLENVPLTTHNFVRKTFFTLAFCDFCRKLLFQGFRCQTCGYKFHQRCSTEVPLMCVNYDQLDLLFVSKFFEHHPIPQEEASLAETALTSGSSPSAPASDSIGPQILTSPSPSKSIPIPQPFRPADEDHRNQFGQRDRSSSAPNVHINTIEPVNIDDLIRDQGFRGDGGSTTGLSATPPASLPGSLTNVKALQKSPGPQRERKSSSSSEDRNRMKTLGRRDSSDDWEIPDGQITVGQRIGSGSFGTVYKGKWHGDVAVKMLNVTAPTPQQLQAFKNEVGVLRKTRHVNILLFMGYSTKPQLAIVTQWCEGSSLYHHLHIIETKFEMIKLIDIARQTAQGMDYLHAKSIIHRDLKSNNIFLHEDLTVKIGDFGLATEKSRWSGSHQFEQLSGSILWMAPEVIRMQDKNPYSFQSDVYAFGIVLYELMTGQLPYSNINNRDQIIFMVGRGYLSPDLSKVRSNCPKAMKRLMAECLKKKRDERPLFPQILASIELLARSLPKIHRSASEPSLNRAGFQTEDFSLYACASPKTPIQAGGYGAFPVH
Chain of RAF proto-oncogene serine/threonine-protein kinase (P04049 whole entry): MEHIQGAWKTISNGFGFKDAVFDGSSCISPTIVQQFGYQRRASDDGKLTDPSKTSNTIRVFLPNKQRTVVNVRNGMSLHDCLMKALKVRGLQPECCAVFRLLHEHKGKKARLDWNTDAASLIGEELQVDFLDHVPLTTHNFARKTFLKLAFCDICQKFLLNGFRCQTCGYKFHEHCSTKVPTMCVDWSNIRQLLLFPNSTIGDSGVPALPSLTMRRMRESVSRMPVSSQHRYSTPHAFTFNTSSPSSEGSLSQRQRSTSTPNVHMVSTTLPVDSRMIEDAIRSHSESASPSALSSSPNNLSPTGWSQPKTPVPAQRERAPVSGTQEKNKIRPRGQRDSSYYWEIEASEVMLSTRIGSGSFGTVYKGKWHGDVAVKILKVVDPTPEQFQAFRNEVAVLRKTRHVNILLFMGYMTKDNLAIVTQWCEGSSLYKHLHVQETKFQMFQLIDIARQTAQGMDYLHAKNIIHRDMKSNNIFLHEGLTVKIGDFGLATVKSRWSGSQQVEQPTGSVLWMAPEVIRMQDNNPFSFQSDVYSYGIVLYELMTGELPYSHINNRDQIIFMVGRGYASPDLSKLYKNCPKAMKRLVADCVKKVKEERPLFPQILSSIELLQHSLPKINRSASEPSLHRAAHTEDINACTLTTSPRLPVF
Chain of High affinity nerve growth factor receptor (P04629 whole entry): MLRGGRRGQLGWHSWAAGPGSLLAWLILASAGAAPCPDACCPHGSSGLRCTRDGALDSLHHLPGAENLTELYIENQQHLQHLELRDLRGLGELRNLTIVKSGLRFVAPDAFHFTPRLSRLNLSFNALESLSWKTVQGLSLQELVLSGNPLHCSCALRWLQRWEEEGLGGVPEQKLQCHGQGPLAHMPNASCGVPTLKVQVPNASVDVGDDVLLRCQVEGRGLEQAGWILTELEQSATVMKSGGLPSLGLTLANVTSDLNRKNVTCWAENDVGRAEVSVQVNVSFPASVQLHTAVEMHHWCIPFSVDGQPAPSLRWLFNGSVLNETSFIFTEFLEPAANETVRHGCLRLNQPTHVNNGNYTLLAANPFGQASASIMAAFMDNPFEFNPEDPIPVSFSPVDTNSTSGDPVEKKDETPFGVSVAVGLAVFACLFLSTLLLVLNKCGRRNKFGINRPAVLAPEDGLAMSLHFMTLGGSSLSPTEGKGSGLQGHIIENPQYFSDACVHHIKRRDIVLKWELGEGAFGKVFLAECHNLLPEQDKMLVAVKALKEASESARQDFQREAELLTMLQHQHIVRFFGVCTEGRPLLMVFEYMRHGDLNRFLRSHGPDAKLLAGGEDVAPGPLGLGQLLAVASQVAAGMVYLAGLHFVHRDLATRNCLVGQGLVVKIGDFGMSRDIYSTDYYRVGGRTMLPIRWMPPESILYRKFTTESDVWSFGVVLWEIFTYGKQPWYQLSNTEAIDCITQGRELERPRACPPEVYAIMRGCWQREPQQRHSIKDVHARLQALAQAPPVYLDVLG
Chain of Macrophage colony-stimulating factor 1 receptor (P07333 whole entry): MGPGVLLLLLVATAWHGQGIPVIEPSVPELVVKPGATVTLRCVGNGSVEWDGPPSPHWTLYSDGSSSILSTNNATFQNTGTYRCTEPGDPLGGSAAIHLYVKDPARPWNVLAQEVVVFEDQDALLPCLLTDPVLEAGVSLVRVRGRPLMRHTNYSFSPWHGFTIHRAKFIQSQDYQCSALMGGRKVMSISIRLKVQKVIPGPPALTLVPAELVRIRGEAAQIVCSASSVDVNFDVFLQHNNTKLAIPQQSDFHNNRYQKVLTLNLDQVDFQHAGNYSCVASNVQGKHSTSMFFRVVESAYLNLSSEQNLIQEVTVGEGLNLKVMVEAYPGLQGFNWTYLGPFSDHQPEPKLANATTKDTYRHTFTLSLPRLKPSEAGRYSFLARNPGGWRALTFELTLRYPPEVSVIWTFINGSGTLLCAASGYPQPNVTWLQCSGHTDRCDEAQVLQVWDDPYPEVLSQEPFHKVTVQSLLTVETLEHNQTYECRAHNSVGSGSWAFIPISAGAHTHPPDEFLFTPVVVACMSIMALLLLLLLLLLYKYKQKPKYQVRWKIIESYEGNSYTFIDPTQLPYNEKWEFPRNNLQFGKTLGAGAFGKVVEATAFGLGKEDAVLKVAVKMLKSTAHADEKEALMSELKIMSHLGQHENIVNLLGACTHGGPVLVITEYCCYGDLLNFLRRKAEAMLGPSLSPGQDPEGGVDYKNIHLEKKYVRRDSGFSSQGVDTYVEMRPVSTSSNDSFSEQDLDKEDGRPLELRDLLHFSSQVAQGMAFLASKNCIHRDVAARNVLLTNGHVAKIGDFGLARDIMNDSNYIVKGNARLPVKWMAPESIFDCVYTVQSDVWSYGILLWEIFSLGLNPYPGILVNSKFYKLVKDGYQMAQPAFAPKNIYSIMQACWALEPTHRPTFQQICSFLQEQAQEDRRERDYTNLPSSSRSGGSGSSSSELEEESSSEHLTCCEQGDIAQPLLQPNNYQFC
Chain of Proto-oncogene tyrosine-protein kinase Src (P12931 2-536 limits assumed): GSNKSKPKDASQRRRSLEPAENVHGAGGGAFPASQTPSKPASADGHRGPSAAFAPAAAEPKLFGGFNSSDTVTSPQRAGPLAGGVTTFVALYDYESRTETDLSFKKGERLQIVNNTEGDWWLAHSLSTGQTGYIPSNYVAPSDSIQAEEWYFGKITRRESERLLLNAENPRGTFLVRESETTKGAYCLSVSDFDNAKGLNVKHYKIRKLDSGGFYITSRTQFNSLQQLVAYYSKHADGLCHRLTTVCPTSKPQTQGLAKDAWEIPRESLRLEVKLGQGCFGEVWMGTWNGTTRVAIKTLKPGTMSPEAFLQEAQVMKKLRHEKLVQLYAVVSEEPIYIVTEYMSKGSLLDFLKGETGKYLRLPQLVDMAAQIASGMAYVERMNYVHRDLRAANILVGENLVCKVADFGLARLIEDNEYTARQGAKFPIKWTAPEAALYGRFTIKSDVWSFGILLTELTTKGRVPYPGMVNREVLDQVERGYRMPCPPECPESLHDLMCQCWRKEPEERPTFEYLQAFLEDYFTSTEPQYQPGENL
Chain of Protein-tyrosine kinase 6 (Q13882 whole entry): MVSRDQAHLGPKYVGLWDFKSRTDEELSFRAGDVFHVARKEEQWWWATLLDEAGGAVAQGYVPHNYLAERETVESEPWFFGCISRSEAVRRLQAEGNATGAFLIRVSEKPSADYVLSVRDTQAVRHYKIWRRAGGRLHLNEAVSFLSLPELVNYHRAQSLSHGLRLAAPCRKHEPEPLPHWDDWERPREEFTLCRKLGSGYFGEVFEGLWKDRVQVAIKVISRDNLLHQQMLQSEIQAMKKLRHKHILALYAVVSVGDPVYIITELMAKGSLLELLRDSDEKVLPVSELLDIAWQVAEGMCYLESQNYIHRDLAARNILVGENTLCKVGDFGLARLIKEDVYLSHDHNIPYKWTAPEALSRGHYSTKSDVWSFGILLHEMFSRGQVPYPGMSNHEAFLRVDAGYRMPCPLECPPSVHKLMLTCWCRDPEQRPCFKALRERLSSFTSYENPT

Row | SMILES | IC50 [1] [µM] | IC50 [2] [µM] | IC50 [3] [µM] | IC50 [4] [µM] | further results
1 | CCCS(=O)(=O)Nc1ccc(F)c(C(=O)Nc2cnc3ccccc3c2)c1F | ≤ 10 | ≤ 10 | ≤ 10 | ≤ 10 | 
2 | CCCS(=O)(=O)Nc1ccc(Cl)c(C(=O)Nc2nnc(Cc3ccc(Cl)cc3)s2)c1F |  |  |  | ≤ 10 | 
3 | CCCS(=O)(=O)Nc1ccc(Cl)c(C(=O)Nc2cnc3ccccn23)c1F | ≤ 10 |  | ≤ 10 |  | 
4 | CCCS(=O)(=O)Nc1ccc(Cl)c(C(=O)Nc2cnc3ccccc3c2)c1F | ≤ 10 | ≤ 10 | ≤ 10 | ≤ 10 | 
5 | CCCS(=O)(=O)Nc1ccc(Cl)c(C(=O)Nc2ccc(NCc3cccs3)nc2)c1F | ≤ 10 | ≤ 10 | ≤ 10 | ≤ 10 | 
6 | CCCS(=O)(=O)Nc1ccc(Cl)c(C(=O)Nc2ccc(NCc3ccccc3)nc2)c1F | ≤ 10 | ≤ 10 | ≤ 10 | ≤ 10 | 
7 | CCCS(=O)(=O)Nc1ccc(Cl)c(C(=O)Nc2cc(-c3ccc(Cl)cc3)n[nH]2)c1F |  |  |  | ≤ 10 | IC50 [5]: ≤ 10 µM
8 | CCCS(=O)(=O)Nc1ccc(F)c(COc2cnc3ccccc3c2)c1F |  |  | ≤ 10 | ≤ 10 | IC50 [5]: ≤ 10 µM
9 | CCCS(=O)(=O)Nc1ccc(Cl)c(C(=O)Nc2ccc(NC3CCCC3)nc2)c1F |  | ≤ 10 |  | ≤ 10 | 
10 | CCCS(=O)(=O)Nc1ccc(F)c(NCc2cnc3ccccc3c2)c1F |  |  | ≤ 10 | ≤ 10 | 
11 | CCCS(=O)(=O)Nc1ccc(F)c(CNc2ccc(NC(C)=O)nc2)c1F |  | ≤ 10 | ≤ 10 | ≤ 10 | 
12 | CCCS(=O)(=O)Nc1ccc(F)c(CNc2cnc3ccccc3c2)c1F |  | ≤ 10 | ≤ 10 | ≤ 10 | 
13 | CCCS(=O)(=O)Nc1ccc(Cl)c(C(=O)Nc2cccnc2)c1F |  | ≤ 10 | ≤ 10 | ≤ 10 | 

More lines, main results first:

Row | IC50 [1] [µM] | IC50 [2] [µM] | IC50 [3] [µM] | IC50 [4] [µM] | SMILES | further results
14 | ≤ 10 | ≤ 10 | ≤ 10 | ≤ 10 | CCCS(=O)(=O)Nc1ccc(Cl)c(C(=O)Nc2ccc(NC3CC3)nc2)c1F | 
15 | ≤ 10 | ≤ 10 | ≤ 10 | ≤ 10 | CCCS(=O)(=O)Nc1ccc(Cl)c(C(=O)Nc2ccc(Nc3ncc(C)s3)nc2)c1F | IC50 [6]: ≤ 10 µM; IC50 [7]: ≤ 10 µM; IC50 [8]: ≤ 10 µM; IC50 [9]: ≤ 10 µM; IC50 [10]: ≤ 10 µM
16 |  |  |  | ≤ 10 | CCCS(=O)(=O)Nc1ccc(Cl)c(C(=O)Nc2ccc(NC(=O)N3CCCC3)nc2)c1F | 
17 | ≤ 10 | ≤ 10 | ≤ 10 | ≤ 10 | CCCS(=O)(=O)Nc1ccc(Cl)c(C(=O)Nc2cnc(NC(C)=O)nc2)c1F | 
18 | ≤ 10 | ≤ 10 | ≤ 10 | ≤ 10 | CCCS(=O)(=O)Nc1ccc(F)c(C(=O)Nc2ccc(NC(C)=O)nc2)c1F | 
19 | ≤ 10 | ≤ 10 | ≤ 10 | ≤ 10 | CCCS(=O)(=O)Nc1ccc(Cl)c(C(=O)Nc2ccc(NC(C)=O)nc2)c1F | IC50 (Focal adhesion kinase 1): ≤ 10 µM; IC50 [7]: ≤ 10 µM; IC50 [11]: ≤ 10 µM; IC50 [12]: ≤ 10 µM; IC50 [13]: ≤ 10 µM; IC50 [10]: ≤ 10 µM; IC50 [14]: ≤ 10 µM; IC50 [15]: ≤ 10 µM
20 |  |  | ≤ 10 | ≤ 10 | CCCS(=O)(=O)Nc1ccc(Cl)c(C(=O)Nc2ccc(NC(C)C)nc2)c1F | 
